Among the test systems are A498 renal; HCC-2998 colon; K-562 leukemia; KM12 colon; MDA-MB-231 breast; NCI-H226 lung; NCI-H522 lung; OVCAR-5 ovarian; PC-3 prostate; SK-MEL-2 melanoma.
What all share (test): growth of human tumour cells (NCI), 48 h

“And” between values parts separate entries of the source, which are not always exact repeats. Equal values may be shown once.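 Cells were grown in 96-well plates and exposed to each compound for 48 hours at five concentrations; endpoints were interpolated linearly between bracketing concentrations, or set to the highest concentration if not reached. GI50: concentration for 50% inhibition of growth. Definition used: TGI = concentration required for complete inhibition of growth.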 Where only a bound is given, the exact number is not on record here.

`Fc1cccc(COc2ccc(Nc3ncnc4sc(-c5ccco5)cc34)cc2Cl)c1`: the GI50 in the assay with A498 renal, with HCC-2998 colon, in the assay on K-562 leukemia, in the assay on KM12 colon, in the assay on MDA-MB-231 breast and in the assay on NCI-H226 lung was more than 25 µM each time. Moreover, the GI50 in the assay with NCI-H522 lung, with OVCAR-5 ovarian, in the assay with PC-3 prostate and with SK-MEL-2 melanoma was more than 25 µM in each case. Besides, the TGI in the assay on A498 renal, with HCC-2998 colon, in the assay with K-562 leukemia, in the assay with KM12 colon, in the assay on MDA-MB-231 breast and with NCI-H226 lung was more than 25 µM each time. For the same compound, the TGI in the assay with NCI-H522 lung, in the assay on OVCAR-5 ovarian, in the assay on PC-3 prostate and in the assay on SK-MEL-2 melanoma was more than 25 µM in each case.

On to `N/C(=N\OC(=O)c1ccccc1)C(C(=O)NOC(=O)c1ccccc1)C1CCCCC1` (stereo not given), for which the GI50 was 14.8 µM in the assay with A498 renal; 13.5 µM in the assay on HCC-2998 colon; 3.08 µM with K-562 leukemia; 11.4 µM in the assay on KM12 colon; 18.1 µM with MDA-MB-231 breast; 15.8 µM in the assay with NCI-H226 lung. Further, the GI50 was 2.82 µM in the assay with NCI-H522 lung, 14.6 µM with OVCAR-5 ovarian, 6.33 µM in the assay on PC-3 prostate and 12.5 µM in the assay on SK-MEL-2 melanoma. Also, the TGI in the assay on A498 renal turned out to be 28.7 µM; in the assay on HCC-2998 colon, 27.2 µM; in the assay on K-562 leukemia it was 10.6 µM; with KM12 colon, 25.1 µM; in the assay on MDA-MB-231 breast, 70.9 µM; in the assay with NCI-H226 lung, 34.1 µM. Also, the TGI in the assay on NCI-H522 lung turned out to be 7.76 µM; in the assay on OVCAR-5 ovarian it was 28.2 µM; in the assay with PC-3 prostate, 20.5 µM; in the assay with SK-MEL-2 melanoma, 26.6 µM.

As to `CN1CCCN(CCNc2nccc(-c3c(-c4cccc(O)c4)nc4sccn34)n2)S1(=O)=O`, the GI50 in the assay on A498 renal is 5.31 µM and 3.4 µM; in the assay on HCC-2998 colon, 13.4 µM and 19.4 µM; in the assay on K-562 leukemia, 12.9 µM and 5.9 µM; in the assay with KM12 colon, 11.7 µM and 9.82 µM; with MDA-MB-231 breast it was 10 µM and 8.06 µM; in the assay with NCI-H226 lung, 15.3 µM and 11.3 µM. The GI50 with NCI-H522 lung was 5.54 µM and 9.27 µM; with OVCAR-5 ovarian it was 27 µM and 32.3 µM; with PC-3 prostate it was 16.3 µM and 14.6 µM; with SK-MEL-2 melanoma, 2.37 µM and 2.15 µM. For the same compound, the TGI in the assay on A498 renal was 17.5 µM and 12.6 µM; in the assay with HCC-2998 colon, 34.5 µM and > 88.2 µM; in the assay on K-562 leukemia, 75 µM and > 100 µM; in the assay on KM12 colon it was 32.5 µM and 55.8 µM; in the assay on MDA-MB-231 breast it was 59.2 µM and > 84.4 µM; in the assay on NCI-H226 lung, 50 µM and 54.5 µM. Besides, the TGI was 27.2 µM and 42.1 µM in the assay on NCI-H522 lung; 75 µM and > 100 µM with OVCAR-5 ovarian; 75 µM and > 100 µM with PC-3 prostate; 7.29 µM and 6.74 µM in the assay with SK-MEL-2 melanoma.

`CC1(C)CCC(C)(C)c2cc(C(=O)Nc3ccc(C(=O)O)cc3)ccc21`: the TGI with A498 renal is more than 100 µM; in the assay with HCC-2998 colon, 37.2 µM; with K-562 leukemia, more than 100 µM; in the assay with KM12 colon, more than 61.4 µM; in the assay on MDA-MB-231 breast it was more than 95.2 µM; in the assay on NCI-H226 lung, more than 65.5 µM. Also, the TGI is 70.6 µM in the assay on NCI-H522 lung, more than 100 µM with OVCAR-5 ovarian, 51.7 µM in the assay with PC-3 prostate and 44.7 µM with SK-MEL-2 melanoma.

For `Cc1cc2c(C(C)C)c(O)c(O)c(C=Nc3cc(C(F)(F)F)ccc3Cl)c2c(O)c1-c1c(C)cc2c(C(C)C)c(O)c(O)c(C=Nc3cc(C(F)(F)F)ccc3Cl)c2c1O`, the TGI in the assay with A498 renal is more than 100 µM; in the assay with HCC-2998 colon, more than 100 µM; with K-562 leukemia, more than 100 µM; with KM12 colon, 92.4 µM; in the assay on MDA-MB-231 breast it was more than 100 µM; with NCI-H226 lung, 95.4 µM. Moreover, the TGI in the assay on NCI-H522 lung was 45.4 µM; with OVCAR-5 ovarian, more than 100 µM; with PC-3 prostate it was more than 100 µM; in the assay with SK-MEL-2 melanoma it was 80.8 µM.

For the compound `COc1ccc(-c2cc(-c3ccc(Cl)cc3)c(C#N)c(=O)n2CCCCC(=O)Nc2ccccc2N)cc1`, the GI50 with A498 renal was 1.79 µM; in the assay on HCC-2998 colon, 6.2 µM; in the assay on K-562 leukemia, 4.18 µM; in the assay on KM12 colon, 5.17 µM; with MDA-MB-231 breast it was 7.86 µM; with NCI-H226 lung, 6.26 µM. Moreover, the GI50 in the assay with NCI-H522 lung is 7.04 µM; in the assay on OVCAR-5 ovarian, 10.8 µM; in the assay on PC-3 prostate, 6.18 µM; in the assay on SK-MEL-2 melanoma, 9.05 µM. Also, the TGI with A498 renal is 48.9 µM; in the assay with HCC-2998 colon, 79.9 µM; in the assay on K-562 leukemia, more than 100 µM; with KM12 colon it was more than 100 µM; in the assay on MDA-MB-231 breast it was more than 100 µM; in the assay with NCI-H226 lung it was 70.9 µM. Moreover, the TGI with NCI-H522 lung was 57.1 µM; in the assay on OVCAR-5 ovarian, more than 100 µM; in the assay with PC-3 prostate, 95.9 µM; with SK-MEL-2 melanoma, 37.8 µM.

Take `Nc1c(C(=O)Nc2ccc([As](=O)(O)O)cc2)cnc2nnnn12`: the TGI in the assay with A498 renal, in the assay with HCC-2998 colon, in the assay on K-562 leukemia, in the assay on KM12 colon, in the assay on MDA-MB-231 breast and in the assay with NCI-H226 lung was more than 100 µM in each case. Further, the TGI in the assay on NCI-H522 lung, in the assay with OVCAR-5 ovarian, in the assay on PC-3 prostate and in the assay on SK-MEL-2 melanoma was more than 100 µM each time.

With `Cc1ccc(C(=O)/C(=C/c2ccc([N+](=O)[O-])cc2)S(=O)Cc2ccccc2)cc1` (stereo not given), the GI50 is 1.75 µM with A498 renal; 1.78 µM with HCC-2998 colon; 0.623 µM with K-562 leukemia; 1.56 µM with KM12 colon; 1.19 µM in the assay on MDA-MB-231 breast; 1.71 µM with NCI-H226 lung. Besides, the GI50 was 1.46 µM in the assay with NCI-H522 lung, 1.69 µM in the assay with OVCAR-5 ovarian, 1.35 µM in the assay on PC-3 prostate and 1.57 µM in the assay on SK-MEL-2 melanoma. The TGI was found to be 3.4 µM in the assay with A498 renal; 3.29 µM in the assay on HCC-2998 colon; 12.4 µM with K-562 leukemia; 3.4 µM in the assay with KM12 colon; 2.77 µM in the assay with MDA-MB-231 breast; 4.72 µM in the assay on NCI-H226 lung. The TGI amounted to 2.9 µM in the assay with NCI-H522 lung, 3.61 µM with OVCAR-5 ovarian, 2.95 µM with PC-3 prostate and 3.26 µM with SK-MEL-2 melanoma.

For the origin of these results see PubChem BioAssay (NCI).
